Data from US7485634B2, “Azepinoindole and pyridoindole derivatives as pharmaceutical agents” (Exelixis, Inc., priority 2002, dated 2009).
Values belong to the molecule of their own block, whether it stands above or below them.

Tests used:
[1] = biological target: T1, full length human farnesoid X receptor (Homo sapiens, UniProt Q96RI1); test: farnesoid X receptor/ECREx7 co-transfection assay (luciferase reporter, CV-1 cells); assay type: cell-based; settings: read-out: agonist activity EC50
T1 construct: CMX-farnesoid X receptor (full length human farnesoid X receptor); expressed in transfected cells; host or cells: CV-1 African Green Monkey Kidney cells
T1 sequence (Q96RI1 1-472 isoform Q96RI1-2): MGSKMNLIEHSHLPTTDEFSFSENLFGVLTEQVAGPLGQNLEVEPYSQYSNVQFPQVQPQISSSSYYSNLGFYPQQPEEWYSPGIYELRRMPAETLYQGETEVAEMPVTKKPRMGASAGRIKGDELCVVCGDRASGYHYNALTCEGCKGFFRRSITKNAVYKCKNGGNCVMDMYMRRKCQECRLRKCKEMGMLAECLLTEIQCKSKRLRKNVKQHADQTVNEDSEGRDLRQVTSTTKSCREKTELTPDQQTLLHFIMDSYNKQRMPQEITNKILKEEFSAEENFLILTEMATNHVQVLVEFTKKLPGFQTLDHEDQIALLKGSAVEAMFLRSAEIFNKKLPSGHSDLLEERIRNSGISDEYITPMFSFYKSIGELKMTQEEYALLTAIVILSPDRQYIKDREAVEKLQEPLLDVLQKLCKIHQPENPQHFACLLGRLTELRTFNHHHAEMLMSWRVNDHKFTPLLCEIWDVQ
T1 sequence (P19793 1-462 partner): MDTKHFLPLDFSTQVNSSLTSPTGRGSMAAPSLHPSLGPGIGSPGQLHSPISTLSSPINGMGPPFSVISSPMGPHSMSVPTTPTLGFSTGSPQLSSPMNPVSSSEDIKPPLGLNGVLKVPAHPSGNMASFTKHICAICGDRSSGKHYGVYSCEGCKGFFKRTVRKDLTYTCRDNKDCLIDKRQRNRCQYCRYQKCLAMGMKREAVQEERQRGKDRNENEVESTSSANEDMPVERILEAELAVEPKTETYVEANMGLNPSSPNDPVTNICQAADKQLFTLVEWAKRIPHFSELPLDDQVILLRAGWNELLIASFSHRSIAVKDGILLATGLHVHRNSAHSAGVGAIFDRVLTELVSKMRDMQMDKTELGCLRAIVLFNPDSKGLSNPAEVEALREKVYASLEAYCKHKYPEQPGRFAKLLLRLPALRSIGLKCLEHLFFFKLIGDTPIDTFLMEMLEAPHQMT
Method: The basic co-transfection protocol for measuring the farnesoid X receptor activity is as follows. CV-1 African Green Monkey Kidney cells were plated 24 hours before transfection to achieve approximately 70-80 percent confluency. Cells were transfected with the following expression vectors, CMX-farnesoid X receptor (full length human farnesoid X receptor), CMX-RXRα (full length human RXR), Luc12 (ECREx7-Tk-Luciferase) luciferase reporter gene construct. (See WO 00/76523, Venkateswaran et al., (2000) J. Biol. Chem. 275 14700-14707). A CMX-β-Galactosidase expression vector was used as a transfection control. The transfection reagent used was DOTAP (Boehringer Mannheim). Cells were incubated with the DOTAP/DNA mixture for 5 hours after which the cells were harvested and plated onto either 96 well or 384 well plates containing the appropriate concentration of test compound. The assay was allowed to continue for an additional 18-20 hours, after which the cells were lysed, with lysis buffer (1% triton X 100, 10% glycerol, 5 mM Dithiothreitol, 1 mM EGTA, 25 mM Tricine, pH 7.8) and the luciferase activity measured in the presence of Luciferase assay buffer (0.73 mM ATP, 22.3 mM Tricine, 0.11 mM EGTA, 0.55 mM Luciferin, 0.15 mM Coenzyme A, 0.5 mM HEPES, 10 mM Magnesium sulphate) on a standard luminomter plate reader (PE Biosystems, NorthStar Reader), using recommended operating instructions and conditions.
Both the farnesoid X receptor/ECREx7 co-transfection assay (Example 76) and the TR-FRET assay (Example 75) can be used to establish the EC50/IC50 values for potency and percent activity or inhibition for efficacy. Efficacy defines the activity of a compound relative to a high control (chenodeoxycholic acid, CDCA) or a low control (DMSO/vehicle). The dose response curves are generated from an 8 point curve with concentrations differing by ½ LOG units. Each point represents the average of 4 wells of data from a 384 well plate. The curve for the data is generated by using the equation: Y=Bottom+(Top−Bottom)/(1+10^((LogEC50−X)*HillSlope))
The EC50/IC50 is therefore defined as the concentration at which an agonist or antagonist elicits a response that is half way between the Top (maximum) and Bottom (baseline) values. The EC50/IC50 values represented are the averages of at least 3 independent experiments. The determination of the relative efficacy or % control for an agonist is by comparison to the maximum response achieved by chenodeoxycholic acid that is measured individually in each dose response experiment.
For the antagonist assay, CDCA is added to each well of a 384 well plate to elicit a response. The % inhibition for each antagonist is therefore a measurement of the inhibition of the activity of CDCA.

normal mice = test: In vivo plasma lipid profile, normal mice, one week of daily oral dosing; design: species or system mouse
Method: To compare the effects of compounds on plasma lipid profiles, including but not limited to cholesterol and triglycerides, animals were dosed with compound for one week and plasma lipid levels monitored throughout the study. Male C57BL/6 mice (n=8) were dosed daily by oral gavage with vehicle or compound. Plasma samples were taken on day −1 (in order to group animals), day 1, 3, and 7. Samples were collected three hours after the daily dose. On day 7 of the study, following plasma collection, animals were euthanized and tissues, such as liver and intestinal mucosa were collected and snap frozen for further analysis. Plasma was analyzed for lipid parameters, such as total cholesterol, HDL cholesterol and triglyceride levels. RNA was extracted from frozen tissues for later analysis by quantitative real time PCR for regulation of key target genes. To identify specificity of target gene regulation by the farnesoid X receptor, knockout mice and C57BL/6 wild-type controls maybe used in this same protocol.

db/db mouse = test: In vivo model of diabetes and dyslipidemia: db/db mouse; settings: once daily 10 mg/kg for one week
farnesoid X receptor = biological target: T2, farnesoid X receptor (Homo sapiens, UniProt Q96RI1); test: one or more of the in vitro assays described herein (TR-FRET assay, Example 75; co-transfection assay, Example 76); settings: relative to maximum response of chenodeoxycholic acid (CDCA); read-out: efficacy;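 further: TR-FRET assay or luciferase reporter in CV-1 monkey kidney cells co-transfected with human FXR and RXRα, dose-response over 8 half-log concentrations, CDCA added in antagonist mode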
T2 construct: fused on or other part: GST fused in frame to the N-terminus of the LBD (TR-FRET assay only); Nothing is fused on in the co-transfection assay
T2 sequence (Q96RI1 244-471 isoform Q96RI1-2 limits assumed): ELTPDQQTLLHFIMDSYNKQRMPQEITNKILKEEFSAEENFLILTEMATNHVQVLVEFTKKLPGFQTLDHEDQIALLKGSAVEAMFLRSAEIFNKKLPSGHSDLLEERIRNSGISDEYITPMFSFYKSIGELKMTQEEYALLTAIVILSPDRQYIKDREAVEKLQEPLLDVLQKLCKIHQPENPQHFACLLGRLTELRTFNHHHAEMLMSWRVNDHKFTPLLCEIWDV

[2] = system: low density lipoprotein receptor deficient mice (LDLR^−/−); test: In vivo model of hyperlipidemia and atherosclerosis: LDLR−/− mice consuming a western diet; design: species or system mouse
[3] = 10 mg/kg daily dosing for one week
[4] = one week of daily dosing at 10 mg/kg

EC50 [1]: < 1 µM
Structure (SMILES): O=C(NC1CCC1)C1=CN(C(=O)c2ccc(F)cc2)CCc2c1[nH]c1ccccc21 [3-(4-fluorobenzoyl)-1,2,3,6-tetrahydroazepino[4,5-b]indole-5-carboxylic acid cyclobutylamide]

Emax (farnesoid X receptor): > 100%
Structure (SMILES): CCOC(=O)C1=CN(C(=O)c2ccc(F)c(F)c2)CC(C)(C)c2c1[nH]c1ccccc21 [ethyl 3-(3,4-difluorobenzoyl)-1,1-dimethyl-1,2,3,6-tetrahydroazepino[4,5-b]indole-5-carboxylate]
plasma HDL-cholesterol levels (normal mice; [3]): without affecting
plasma non-HDL cholesterol (normal mice; [3]): significant lowering
plasma total cholesterol (normal mice; [3]): decreased
plasma triglyceride levels (normal mice; once daily dosing at 0.1-10 mg/kg for one week): significantly reduced
plasma free fatty acid levels (db/db mouse): declines
reduction in non-HDL cholesterol (db/db mouse): approximately 50%
reduction in plasma triglycerides (db/db mouse): approximately 50%
decrease of plasma total cholesterol levels [2, 4]: ~50%
non-HDL cholesterol [2, 4]: decrease
reduction of plasma triglycerides [2, 4]: greater than 50%
plasma free fatty acid concentration ([2]; treatment with compound): attenuated
plasma glucose concentration ([2]; treatment with compound): attenuated

EC50 [1]: < 1 µM
Structure (SMILES): CCCOC(=O)C1=CN(C(=O)c2ccc(F)cc2)C(C)Cc2c1[nH]c1ccccc21 (stereo not shown) [n-propyl 3(4-fluorobenzoyl)-2-methyl-1,2,3,6-tetrahydroazepino[4,5-b]indole-5-carboxylate]

EC50 [1]: < 1 µM
Structure (SMILES): CCCOC(=O)C1=CN(C(=O)c2ccc(F)cc2)C(C)Cc2c1[nH]c1cc(F)ccc21 (stereo not shown) [n-propyl 3(4-fluorobenzoyl)-2-methyl-8-fluoro-1,2,3,6-tetrahydroazepino[4,5-b]indole-5-carboxylate]
